Data taken from patent publication US6486157B1, “Use of insecticides in pest control” (priority 1998, dated 2002).

Legend:
Format in all cases: in vivo
[1] = system: Anthonomus grandis; assay: Spray test on young transgenic cotton plants, action against Anthonomus grandis adults; details: for control of the tested insects in the non-transgenic plant (% action): non-transgenic cotton, spray mixture of active ingredient and conventional CryIIIA-toxin, each 100, 50, 10, 5, 1 ppm, 3 to 10 days; for control of the tested insects in the transgenic plant (% action): spray 100, 50, 10, 5, 1 ppm, evaluation 3 to 10 days, compared with treated non-transgenic cotton
Excerpt: (§1) Young transgenic cotton plants which express the δ-endotoxin CryIIIA are sprayed with an aqueous emulsion spray mixture comprising 100, 50, 10, 5, 1 ppm of profenofos respectively. After the spray coating has dried on, the cotton plants are populated with 10 adult Anthonomus grandis, 10 Spodoptera littora larvae or 10 Heliothis virescens larvae respectively and introduced into a plastic container. Evaluation takes place 3 to 10 days later. The percentage reduction in population, or the percentage reduction in feeding damage (% action), is determined by comparing the number of dead beetles and the feeding damage on the transgenic cotton plants with that of non-transgenic cotton plants which have been treated with an emulsion spray mixture comprising lufenuron and conventional CryIIIA-toxin at a concentration of in each case 100, 50, 10, 5, 1 ppm respectively.
as §1, with “pymetrozine” for “lufenuron”
as §1, with “express tho” for “express the”, “δ-endotoxin CryIa (c)” for “δ-endotoxin CryIIIA”, “of fenoxycarb” for “of profenofos”, “comprising fenoxycarb” for “comprising lufenuron”, “and con-ventional” for “and conventional”
as §1, with “δ-endotoxin CryIa(c)” for “δ-endotoxin CryIIIA”, “of fenoxycarb” for “of profenofos”, “comprising fenoxycarb” for “comprising lufenuron”
(§2) Young transgenic cotton plants which express the δ-endotoxin CryIa(c) are sprayed with an aqueous emulsion spray mixture comprising 100, 50, 10, 5, 1 ppm of pymetrozine respectively. After the spray coating has dried on, the cotton plants are populated with 10 adult Anthonomus grandis, 10 Spodoptera littora larvae or 10 Heliothis virescens larvae respectively and introduced into a plastic container. Evaluation takes place 3 to 10 days later. […]

[2] = system: Spodoptera littoralis; assay: Spray test on young transgenic cotton plants, action against Spodoptera littoralis larvae; details: for control of the tested insects in the non-transgenic plant (% action): non-transgenic cotton, spray mixture of active ingredient and conventional CryIIIA-toxin, each 100, 50, 10, 5, 1 ppm, 3 to 10 days; for control of the tested insects in the transgenic plant (% action): spray 100, 50, 10, 5, 1 ppm, evaluation 3 to 10 days, compared with treated non-transgenic cotton
Excerpt: as §1
as §1, with “pymetrozine” for “lufenuron”
as §1, with “express tho” for “express the”, “δ-endotoxin CryIa (c)” for “δ-endotoxin CryIIIA”, “of fenoxycarb” for “of profenofos”, “comprising fenoxycarb” for “comprising lufenuron”, “and con-ventional” for “and conventional”
as §1, with “δ-endotoxin CryIa(c)” for “δ-endotoxin CryIIIA”, “of fenoxycarb” for “of profenofos”, “comprising fenoxycarb” for “comprising lufenuron”
as §2

[3] = system: Heliothis virescens; assay: Spray test on young transgenic cotton plants, action against Heliothis virescens larvae; details: for control of the tested insects in the non-transgenic plant (% action): non-transgenic cotton, spray mixture of active ingredient and conventional CryIIIA-toxin, each 100, 50, 10, 5, 1 ppm, 3 to 10 days; for control of the tested insects in the transgenic plant (% action): spray 100, 50, 10, 5, 1 ppm, evaluation 3 to 10 days, compared with treated non-transgenic cotton
Excerpt: as §1
as §1, with “pymetrozine” for “lufenuron”
as §1, with “express tho” for “express the”, “δ-endotoxin CryIa (c)” for “δ-endotoxin CryIIIA”, “of fenoxycarb” for “of profenofos”, “comprising fenoxycarb” for “comprising lufenuron”, “and con-ventional” for “and conventional”
as §1, with “δ-endotoxin CryIa(c)” for “δ-endotoxin CryIIIA”, “of fenoxycarb” for “of profenofos”, “comprising fenoxycarb” for “comprising lufenuron”
as §2

[4] = system: Ostrinia nubilalis; assay: Plot test on maize cv. KnockOut vs conventional maize, action against Ostrinia nubilalis; details: natural infestation; for control on the plants of plot (a) (% action): plot (a) maize cv. KnockOut, spray 200, 100, 50, 10, 5, 1 ppm, evaluation 6 days later; for control level, plot (b): plot (b) conventional maize, spray 200, 100, 50, 10, 5, 1 ppm plus same ppm of the endotoxin expressed by KnockOut, 6 days
Protocol: (§3) A plot (a) planted with maize cv. KnockOut® and an adjacent plot (b) of the same size which is planted with conventional maize, both showing natural infestation with Ostrinia nubilalis, Spodoptera sp or Heliothis, are sprayed with an aqueous emulsion spray mixture comprising 200, 100, 50, 10, 5, 1 ppm of fenoxycarb . Immediately afterwards, plot (b) is treated with an emulsion spray mixture comprising 200, 100, 50, 10, 5, 1 ppm of the endotoxin expressed by KnockOut®. Evaluation takes place 6 days later. The percentage reduction in population (% action) is determined by comparing the number of dead pests on the plants of plot (a) with that on the plants of plot (b).
as §3, with “pymetrozine.” for “fenoxycarb .”
(§4) A plot (a) planted with maize cv. KnockOut® and an adjacent plot (b) of the same size which is planted with conventional maize, both showing natural infestation with Ostrinia nubilalis. Spodoptera sp or Heliothis, are sprayed with an aqueous emulsion spray mixture comprising 200, 100, 50, 10, 5, 1ppm of lufenuron. Immediately afterwards, plot (b) is treated with an emulsion spray mixture comprising 200, 100, 50, 10, 5, 1 ppm of the endotoxin expressed by KnockOut®. Evaluation takes place 6 days later. The percentage reduction in population (% action) is determined by comparing the number of dead pests on the plants of plot (a) with that on the plants of plot (b).

[5] = system: Spodoptera spp.; assay: Plot test on maize cv. KnockOut vs conventional maize, action against Spodoptera spp.; details: natural infestation; for control on the plants of plot (a) (% action): plot (a) maize cv. KnockOut, spray 200, 100, 50, 10, 5, 1 ppm, evaluation 6 days later; for control level, plot (b): plot (b) conventional maize, spray 200, 100, 50, 10, 5, 1 ppm plus same ppm of the endotoxin expressed by KnockOut, 6 days
Protocol: as §3
as §3, with “pymetrozine.” for “fenoxycarb .”
as §4

[6] = system: Heliothis spp.; assay: Plot test on maize cv. KnockOut vs conventional maize, action against Heliothis spp.; details: natural infestation; for control on the plants of plot (a) (% action): plot (a) maize cv. KnockOut, spray 200, 100, 50, 10, 5, 1 ppm, evaluation 6 days later; for control level, plot (b): plot (b) conventional maize, spray 200, 100, 50, 10, 5, 1 ppm plus same ppm of the endotoxin expressed by KnockOut, 6 days
Protocol: as §3
as §3, with “pymetrozine.” for “fenoxycarb .”
as §4

[7] = system: Frankliniella occidentalis; assay: Transgenic vs conventional cotton seedlings, action against Frankliniella occidentalis; details: 20° C.; for control on the plants of plot (a) (% action): spray 400 ppm, evaluated after 3 and 6 days; for control level, plot (b): plot (b) conventional cotton seedlings, 3 and 6 days
Protocol: (§5) Cotton seedlings expressing the δ-endotoxin Crylila on a plot (a) and conventional cotton seedlings on a plot (b) are infected with Frankliniella occidentalis and subsequently sprayed with a spray mixture comprising 400 ppm lufenuron. Immediately afterwards, plot (b) is treated with an emulsion spray mixture comprising 400 ppm of the S-endotoxin CrylIla. The seedlings of plot (a) and (b) are then incubated at 20° C. The test is evaluated after 3 and 6 days.
(§6) The percentage reduction in population (% action) is determined by comparing the number of dead pests on the plants of plot (a) with that on the plants of plot (b).
as §5, with “CryIa(c)” for “Crylila”, “δ-endotoxin CryIa(c).” for “S-endotoxin CrylIla.”

[8] = system: Aphis gossypii; assay: Transgenic vs conventional cotton seedlings, action against Aphis gossypii; details: 20° C.; for control on the plants of plot (a) (% action): spray 400 ppm, evaluated after 3 and 6 days; for control level, plot (b): plot (b) conventional cotton seedlings, 3 and 6 days
Protocol: (§7) Cotton seedlings on a plot (a) expressing the δ-endotoxin CryllIa on a plot (a) and conven-tional cotton seedlings on a plot (b) are infected with Aphis gossypi and subsequently sprayed with a spray mixture comprising 400 ppm pymetrozine. immediately afterwards, plot (b) is treated with an emulsion spray mixture comprising 400 ppm of the δ-endotoxin Crylila. The seedlings of plot (a) and (b) are then incubated at 20° C. The test is evaluated after 3 and 6 days.
as §6
as §7, with “seedlings” for “seedlings on a plot (a)”, “CryIA(c)” for “CryllIa”, “conventional” for “conven-tional”, “gossypii” for “gossypi”, “Immediately” for “immediately”, “[…].” for “Crylila.”

[9] = transgenic cotton expressing δ-endotoxin CryIa(c)
[10] = plot (a) cotton seedlings expressing δ-endotoxin CryIa(c)
[11] = transgenic cotton expressing δ-endotoxin CryIIIA

**Q.** `CCOC(=O)NCCOc1ccc(Oc2ccccc2)cc1` [fenoxycarb, Ethyl 2-(4-Phenoxyphenoxy)ethylcarbamat] was tested. Which “control of the tested insects in the non-transgenic plant (% action)” value [1] did it give?
**A.** The value was “insufficient”.

**Q.** And the “control of the tested insects in the transgenic plant (% action)” value (“control … in the transgenic plant (% action)” for short) [1, 9]?
**A.** The value was “superior”.

**Q.** What about the “control of the tested insects in the non-transgenic plant (% action)” value [2] of the same compound?
**A.** The value was “insufficient”.

**Q.** And the “control … in the transgenic plant (% action)” value [2, 9]?
**A.** The value was “superior”.

**Q.** And the “control of the tested insects in the non-transgenic plant (% action)” value [3]?
**A.** Its value is “insufficient”.

**Q.** And the “control … in the transgenic plant (% action)” value [3, 9]?
**A.** The value was “superior”.

**Q.** What about the “control on the plants of plot (a) (% action)” value (shortened to “control … (a) (% action)”) [4] of the same compound?
**A.** The value was “Improved control”.

**Q.** And the “control level, plot (b)” value [4]?
**A.** Its value is no more than 60%.

**Q.** And the “control … (a) (% action)” value [5]?
**A.** The value was “Improved control”.

**Q.** What about the “control level, plot (b)” value [5] of the same compound?
**A.** The value was no more than 60%.

**Q.** What about the “control … (a) (% action)” value [6] of the same compound?
**A.** The value was “Improved control”.

**Q.** What about the “control level, plot (b)” value [6] of the same compound?
**A.** Its value is no more than 60%.

**Q.** What does the source list for `O=C(NC(=O)c1c(F)cccc1F)Nc1cc(Cl)c(OC(F)(F)C(F)C(F)(F)F)cc1Cl` (centres unmarked) [lufenuron]?
**A.** control of the tested insects in the non-transgenic plant (% action) [1]: insufficient; control of the tested insects in the transgenic plant (% action) [1, 9]: superior; control of the tested insects in the non-transgenic plant (% action) [2]: insufficient; control of the tested insects in the transgenic plant (% action) [2, 9]: superior; control of the tested insects in the non-transgenic plant (% action) [3]: insufficient; control of the tested insects in the transgenic plant (% action) [3, 9]: superior; control on the plants of plot (a) (% action) [4]: Improved control; control level, plot (b) [4]: ≤ 60%; control on the plants of plot (a) (% action) [5]: Improved control; control level, plot (b) [5]: ≤ 60%; control on the plants of plot (a) (% action) [6]: Improved control; control level, plot (b) [6]: ≤ 60%; control on the plants of plot (a) (% action) [7, 10]: Improved control; control on the plants of plot (a) (% action) ([7]; plot (a) cotton seedlings expressing δ-endotoxin Crylila): Improved control; control level, plot (b) ([7]; spray 400 ppm plus 400 ppm of endotoxin CrylIla): ≤ 60%; control level, plot (b) ([7]; spray 400 ppm plus 400 ppm of δ-endotoxin CryIa(c)): ≤ 60%

**Q.** Which “control … in the transgenic plant (% action)” value [1, 11] does the source give for `CCCSP(=O)(OCC)Oc1ccc(Br)cc1Cl` (centres unmarked) [profenofos, O-4-Brom-2-chlorphenyl O-Ethyl S-Propyl Phosphorothioat] here?
**A.** Its value is “superior”.

**Q.** And the “control … in the transgenic plant (% action)” value [2, 11]?
**A.** The value was “superior”.

**Q.** And the “control … in the transgenic plant (% action)” value [3, 11]?
**A.** Its value is “superior”.

**Q.** With `CC1=NNC(=O)N(N=Cc2cccnc2)C1` [pymetrozine, 2,3,4,5-Tetrahydro-3-oxo-4-[(pyridin-3-yl)-methylenamino]-6-methyl-1,2,4-triazin] as the compound, how does the “control of the tested insects in the non-transgenic plant (% action)” value [1] read?
**A.** The value was “insufficient”.

**Q.** What about the “control … in the transgenic plant (% action)” value [1, 9] of the same compound?
**A.** Its value is “superior”.

**Q.** What about the “control of the tested insects in the non-transgenic plant (% action)” value [2] of the same compound?
**A.** Its value is “insufficient”.

**Q.** What about the “control … in the transgenic plant (% action)” value [2, 9] of the same compound?
**A.** The value was “superior”.

**Q.** What about the “control of the tested insects in the non-transgenic plant (% action)” value [3] of the same compound?
**A.** The value was “insufficient”.

**Q.** What about the “control … in the transgenic plant (% action)” value [3, 9] of the same compound?
**A.** The value was “superior”.

**Q.** And the “control … (a) (% action)” value [4]?
**A.** The value was “Improved control”.

**Q.** What about the “control level, plot (b)” value [4] of the same compound?
**A.** Its value is no more than 60%.

**Q.** What about the “control … (a) (% action)” value [5] of the same compound?
**A.** The value was “Improved control”.

**Q.** And the “control level, plot (b)” value [5]?
**A.** Its value is no more than 60%.

**Q.** And the “control … (a) (% action)” value [6]?
**A.** The value was “Improved control”.

**Q.** And the “control level, plot (b)” value [6]?
**A.** The value was no more than 60%.

**Q.** What about the “control … (a) (% action)” value [8, 10] of the same compound?
**A.** Its value is “Improved control”.

**Q.** And the “control … (a) (% action)” value ([8]; plot (a) cotton seedlings expressing δ-endotoxin CryllIa)?
**A.** The value was “Improved control”.

**Q.** What about the “control level, plot (b)” value ([8]; spray 400 ppm plus 400 ppm of δ-endotoxin Crylila) of the same compound?
**A.** Its value is no more than 60%.

**Q.** And the “control level, plot (b)” value ([8]; spray 400 ppm plus 400 ppm of δ-endotoxin Crylla)?
**A.** The value was no more than 60%.
